Test results taken from paper PMC4604124, “In Vitro Characterization of the Pharmacological Properties of the Anti-Cancer Chelator, Bp4eT, and Its Phase I Metabolites” (PLoS ONE, 2015).
Values joined by “and” are separate entries in the source; they are usually repeats but may differ in a detail not shown here. Identical values can stand only once. Like-named read-outs stand apart in the source and are kept apart here.

Assays:
[1] = tested on: MCF-7 human breast adenocarcinoma cells; experiment: MTT cytotoxicity assay, MCF-7 cells; assay type: cell-based; conditions: for IC50: MTT
Method in brief: (§1)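 72 h/37°C exposure, 0.1% DMSO. Plating: MCF-7 5,000; HCT116, A549 2,000; H9c2 10,000 cells/well, H9c2 switched to serum/pyruvate-free DMEM 24 h. MTT OD 570 nm, 690 nm background subtracted. Viability as % untreated control; IC50 derived.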

[2] = tested on: A549 human lung adenocarcinoma cells; experiment: MTT cytotoxicity assay, A549 cells; assay type: cell-based; conditions: for IC50: MTT
Method in brief: as §1

[3] = tested on: MCF-7 cells prelabeled with 59Fe2-transferrin; experiment: Mobilization (efflux) of cellular 59Fe; assay type: cell-based, human; design: Efflux 59Fe / Efflux 59Fe, Ave: unit not given here
Method in brief: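 Confluent MCF-7 cells prelabeled with 0.75 μM 59Fe2-Tf for 3 h at 37 °C, washed, then exposed to 25 μM compound for 3 h at 37 °C. 59Fe in cells and medium counted by γ-scintillation to give released fraction.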

MCF-7 cells [4] = experiment: Cellular 59Fe uptake from 59Fe2-transferrin; assay type: cell-based, human; design: key to Uptake 59Fe, Ave / Uptake 59Fe: % of internalized 59Fe in untreated control cells
Method in brief: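 Confluent MCF-7 cells were incubated 3 h at 37°C with 0.75 μM ⁵⁹Fe₂-transferrin (500 pCi/pmol Fe) plus chelator at 25 μM. Membrane-bound ⁵⁹Fe was released with Pronase (1 mg/mL, 30 min, 4°C). Pronase-insensitive internalized ⁵⁹Fe was expressed as % of untreated control.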

MCF-7 cells [5] = experiment: Cell cycle analysis by flow cytometry (propidium iodide); assay type: cell-based, human; conditions: 0.1 μM, 72 h
Protocol: To examine the effect of the agents on the cell cycle, MCF-7 cells were seeded in 60 mm Petri dishes at a density of 240,000 cells/dish and incubated with Bp4eT or its metabolites for 72 h/37°C. The cells were then harvested, fixed by ethanol and stained by propidium iodide (Molecular Probes, Eugene, OR, USA) for 30 min/37°C, as described previously. Cells were analyzed using Accuri C6 flow cytometer (Becton Dickinson and Company, San Jose, CA USA). Propidium iodide was excited at λex = 488 nm and fluorescence analyzed at λem = 585 nm (FL-2) with a total of 10,000 events collected per analysis.
SigmaStat for Windows 3.5 (Systat Software, San Jose, CA, USA) statistical software package was utilized to analyze results. The data are expressed as the mean ± SD of a given number of experiments. Statistical significance was determined using a one-way ANOVA with a Bonferroni post-hoc test or Student’s t-test. The results were considered to be statistically significant when p < 0.05. The IC50 values were calculated using CalcuSyn 2.0 software (Biosoft, Cambridge, UK). Cell cycle analysis was evaluated using MultiCycle AV Software (Phoenix Flow Systems, San Diego, CA, USA).

CCNC(=S)NN=C(c1ccccc1)c1ccccn1 [Bp4eT, 2-benzoylpyridine 4-ethyl-3-thiosemicarbazone]
MCF-7 proliferation, % of the control ([1]; 0.1 μM, 72 h): 27% | Therapeutic index, IC50 non-cancerous cells / IC50 neoplastic cells ([1]; 3T3/MCF-7): 87.3 | Therapeutic index, IC50 non-cancerous cells / IC50 neoplastic cells ([1]; H9c2/MCF-7): 34.9 | IC50 ([1]; Homo sapiens, MCF7, 72 h, MCF-7, 72 h/37°C, mean ± SD, n ≥ 4, read-out: IC50): 0.015 ± 0.002 µM | IC50 ([1]; Homo sapiens, MCF7, MCF-7, 5 000 b/j, průměr (mean), read-out: IC50 měřené): 0.0146 µM | IC50 ([1]; Homo sapiens, MCF7, MCF-7, 5 000 b/j, single experiment (date), read-out: IC50 měřené): 0.0146 µM | MTT, relative to control (0 = 100) ([1]; MCF-7, 5 000 b/j, 0.1 nM, průměr (mean)): 96.38 | MTT, relative to control (0 = 100) ([1]; MCF-7, 5 000 b/j, 0.1 nM, single experiment (date)): 88.7924 and 103.938 and 95.2002 and 101.937 and 92.0538 | MTT, relative to control (0 = 100) ([1]; MCF-7, 5 000 b/j, 0.3 nM, průměr (mean)): 88.87 | MTT, relative to control (0 = 100) ([1]; MCF-7, 5 000 b/j, 0.3 nM, single experiment (date)): 99.7305 and 86.2923 and 86.9644 and 82.4877 | MTT, relative to control (0 = 100) ([1]; MCF-7, 5 000 b/j, 1 nM, průměr (mean)): 87.17 | MTT, relative to control (0 = 100) ([1]; MCF-7, 5 000 b/j, 1 nM, single experiment (date)): 87.1761 and 96.2311 and 86.4816 and 83.9319 and 82.0349 | MTT, relative to control (0 = 100) ([1]; MCF-7, 5 000 b/j, 3 nM, průměr (mean)): 84.98 | MTT, relative to control (0 = 100) ([1]; MCF-7, 5 000 b/j, 3 nM, single experiment (date)): 92.03 and 87.788 and 84.0816 and 76.0316 | MTT, relative to control (0 = 100) ([1]; MCF-7, 5 000 b/j, 10 nM, průměr (mean)): 59.89 | MTT, relative to control (0 = 100) ([1]; MCF-7, 5 000 b/j, 10 nM, single experiment (date)): 58.817 and 55.8764 and 63.7331 and 67.2949 and 53.713 | MTT, relative to control (0 = 100) ([1]; MCF-7, 5 000 b/j, 30 nM, průměr (mean)): 30.78 | MTT, relative to control (0 = 100) ([1]; MCF-7, 5 000 b/j, 30 nM, single experiment (date)): 29.4154 and 32.9782 and 31.8134 and 28.9002 | MTT, relative to control (0 = 100) ([1]; MCF-7, 5 000 b/j, 100 nM, průměr (mean)): 27.09 | MTT, relative to control (0 = 100) ([1]; MCF-7, 5 000 b/j, 100 nM, single experiment (date)): 33.1607 and 22.627 and 26.6274 and 27.398 and 25.6334 | IC50 ([1]; MCF-7, 5 000 b/j, single experiment (date), read-out: IC50 měřené): 0.0163 µM and 0.0162 µM and 0.0112 µM | Therapeutic index, IC50 non-cancerous cells / IC50 neoplastic cells ([2]; 3T3/A549): 2.2 | MTT, relative to control (0 = 100) ([2]; A549, 2 000 b/j, 3 nM, průměr (mean)): 92.19 | MTT, relative to control (0 = 100) ([2]; A549, 2 000 b/j, 3 nM, single experiment (date)): 91.5535 and 92.8133 and 91.0654 and 88.0734 and 97.4647 | MTT, relative to control (0 = 100) ([2]; A549, 2 000 b/j, 10 nM, průměr (mean)): 91.72 | MTT, relative to control (0 = 100) ([2]; A549, 2 000 b/j, 10 nM, single experiment (date)): 91.5177 and 92.1605 and 92.1041 and 86.392 and 96.4421 | MTT, relative to control (0 = 100) ([2]; A549, 2 000 b/j, 30 nM, průměr (mean)): 87.89 | MTT, relative to control (0 = 100) ([2]; A549, 2 000 b/j, 30 nM, single experiment (date)): 87.7056 and 88.2789 and 85.7469 and 83.2321 and 94.498 | MTT, relative to control (0 = 100) ([2]; A549, 2 000 b/j, 100 nM, průměr (mean)): 69.03 | MTT, relative to control (0 = 100) ([2]; A549, 2 000 b/j, 100 nM, single experiment (date)): 72.0253 and 71.8755 and 68.5876 and 61.5642 and 71.0965 | MTT, relative to control (0 = 100) ([2]; A549, 2 000 b/j, 300 nM, průměr (mean)): 52.20 | MTT, relative to control (0 = 100) ([2]; A549, 2 000 b/j, 300 nM, single experiment (date)): 56.5532 and 52.1351 and 48.5459 and 51.5538 | MTT, relative to control (0 = 100) ([2]; A549, 2 000 b/j, 1000 nM, průměr (mean)): 44.75 | MTT, relative to control (0 = 100) ([2]; A549, 2 000 b/j, 1000 nM, single experiment (date)): 46.6699 and 42.1761 and 41.9617 and 48.1966 | MTT, relative to control (0 = 100) ([2]; A549, 2 000 b/j, 3000 nM, průměr (mean)): 30.92 | MTT, relative to control (0 = 100) ([2]; A549, 2 000 b/j, 3000 nM, single experiment (date)): 34.7604 and 31.7204 and 27.6953 and 29.4937 | IC50 ([2]; A549, 2 000 b/j, single experiment (date)): 0.549 µM and 0.407 µM and 0.67 µM | Therapeutic index, IC50 non-cancerous cells / IC50 neoplastic cells ([2]; H9c2/A549): 0.9 | IC50 ([2]; Homo sapiens, A549, 72 h, A549, 72 h/37°C, mean ± SD, n ≥ 4): 0.593 ± 0.148 µM | IC50 ([2]; Homo sapiens, A549, A549, 2 000 b/j, průměr (mean)): 0.593 µM | IC50 ([2]; Homo sapiens, A549, A549, 2 000 b/j, single experiment (date)): 0.744 µM | Therapeutic indices, range ([2]; against A549 cells (H9c2/A549 and 3T3/A549)): 0.9–2.2 | Release of cellular 59Fe, % of total cellular 59Fe ([3]; 25 μM, 3 h/37°C, MCF-7): 46.4% | Efflux 59Fe, Ave ([3]; average of all replicates): 46.4439 | Efflux 59Fe ([3]; single replicate (three per date)): 48.2798 and 45.5975 and 45.2039 and 47.6936 and 45.8687 and 45.6484 and 48.9726 and 45.6298 and 45.1012 | Internalized 59Fe uptake, % of the control (MCF-7 cells [4]; 25 μM, 3 h/37°C, MCF-7, 0.75 μM 59Fe2-Tf): 11.5% | Uptake 59Fe, Ave (MCF-7 cells [4]; average of all replicates, Control Ave = 100): 11.5476 | Uptake 59Fe (MCF-7 cells [4]; single replicate (three per date), Control Ave = 100): 9.2904 and 11.2475 and 13.4264 and 10.306 and 10.873 and 13.9435 and 11.6905 and 10.1589 and 12.9919 | G1 phase of the cell cycle (MCF-7 cells [5]): not significantly (p > 0.05) different from the control | Percentage of cells in the S phase (MCF-7 cells [5]; control 15%): 35% | Percentage of cells in the G2/M phase (MCF-7 cells [5]; control 33%): 12%
